Assay results published in patent publication US20200032271A1, “COMBINATION THERAPY WITH LIPOSOMAL ANTISENSE OLIGONUCLEOTIDES” (Bio-Path Holdings, Inc., priority 2016, published 2020).
Where two headings read alike, the source gives them in different places. [PEt] = P-ethoxy (ethyl phosphotriester) internucleoside linkage

Legend:
BV173 cells [1] = assay: Cell cycle analysis (7-AAD flow cytometry); type: cell-based, human
Method: Cells were then fixed and permeabilized for 1 h at 4° C. with 1×Fixation/Permeabilization buffer (Ebioscience, San Diego, Calif., USA). After permeabilization, cells were washed and incubated with 7-aminoactinomycin D (7-AAD, Biolegend, San Diego, Calif., USA) in the dark at 4° C. for about 30 min. Flow cytometric data acquisition was acquired using BD FACSDiva™ software (BD Biosciences, San Jose, Calif., USA). The flow cytometer was set to collect 20,000 events. Relative percentages in the different cell cycle phases (sub-G1, G1, S, G2/M) were reported.
[…] Three days later, cells were harvested and processed for flow cytometry.

BV173 cells [2] = tested on: BV173 cells
Method: (§1) BV173 and K562 cells were seeded at 5 and 15×10^3 cells/well, respectively, in 96-well plates in 0.1 mL of medium. Cells were incubated with BP1001 and/or tyrosine kinase inhibitors for 4 days. The viability of untreated and treated leukemia cells was measured by the CellTiter-Glo® Luminescent Cell Viability Assay (Promega, Madison, Wis., USA). The CellTiter-Glo® Luminescent Cell Viability Assay determines the number of viable cells by quantitating the presence of ATP, an indicator of metabolically active cells.

[3] = Plasma pharmacokinetics of Grb2 antisense oligo in patients; settings: plasma
Method: Pharmacokinetic (PK) analysis was performed on plasma samples collected from refractory/relapsed patients diagnosed with AML receiving BP1001 (60 mg/m^2)+LDAC or receiving BP1001 (90 mg/m^2)+LDAC.
Blood samples for measurement of Grb2 antisense oligo concentrations were collected from patients in cohorts 7 and 8, at predose, 1, 2, 4, 6, 8, 24, 72 h post start-of-infusion (SOI). Urine samples for measurement of BP1001 concentrations were also collected from patients in cohorts 7 and 8, at start of dose-4 h, 4-8 h postdose, and 8-24 h postdose. PK blood samples were processed to plasma and analyzed using a validated method (Charles River Laboratories, Montreal, Canada) with a lower limit of quantitation (LLOQ; 0.5 ng/mL). Urine samples were analyzed using a validated method (Charles River Laboratories, Montreal, Canada) with a LLOQ of 1.00 ng/mL.
PK parameters were estimated using Phoenix pharmacokinetic software (Certara). A non-compartmental approach consistent with the IV infusion route of administration was used for parameter estimation, using an estimated infusion time of 2.5 h. All parameters were generated from Grb2 antisense oligo individual concentrations in plasma from Day 1 of Cycle 1, whenever practical. […] Parameters were estimated using nominal sampling times relative to the start of infusion. The area under the concentration vs. time curve (AUC) was calculated using the linear trapezoidal method with linear interpolation. The slope of the terminal elimination phase was determined using log linear regression on the unweighted concentration data.

[4] = tyrosine kinase inhibitor alone or after BP1001 pretreatment (FIG. 9A)
[5] = tyrosine kinase inhibitor alone or followed by BP1001 (FIG. 9B)
[6] = BP1001 (120 μg/mL in the combination) 1 h before 1 nM dasatinib, four days
[7] = BP1001 (120 μg/mL in the combination) 1 day before dasatinib
[8] = dasatinib 1 day, then BP1001 (120 μg/mL in the combination), read 3 days later

Method for K562 cells: as §1

Cc1ccc(C(=O)Nc2ccc(CN3CCN(C)CC3)c(C(F)(F)F)c2)cc1C#Cc1cnc2cccnn12 [ponatinib]
percentage of cells in sub-G1 phase (BV173 cells [1]; [4]): 34.0% | percentage of cells in sub-G1 phase (BV173 cells [1]; [5]): 71.1%

Cc1cn(-c2cc(NC(=O)c3ccc(C)c(Nc4nccc(-c5cccnc5)n4)c3)cc(C(F)(F)F)c2)cn1 [nilotinib]
percentage of cells in sub-G1 phase (BV173 cells [1]; [4]): 26.4% | percentage of cells in sub-G1 phase (BV173 cells [1]; [5]): 65.0%

Cc1nc(Nc2ncc(C(=O)Nc3c(C)cccc3Cl)s2)cc(N2CCN(CCO)CC2)n1 [dasatinib]
decrease of viability (K562 cells; [6]): 25% | decrease of viability (K562 cells; [7]): 25% | decrease of viability (K562 cells; [8]): 12% | decrease of viability (BV173 cells [2]; [6]): 40% | decrease of viability (BV173 cells [2]; [7]): 10% | decrease of viability (BV173 cells [2]; [8]): 6% | percentage of cells in sub-G1 phase (BV173 cells [1]; BP1001 1 day before dasatinib, harvested three days later (FIGS. 8A-D)): 10.6% | percentage of cells in sub-G1 phase (BV173 cells [1]; [4]): 30.7% | percentage of cells in sub-G1 phase (BV173 cells [1]; [5]): 64.1%

5′-ATATTTGGCGATGGCTTC-3′ (DNA, all [PEt], methylation of C not given here) [Grb2 antisense oligo]
Tmax ([3]; 60 mg/m^2 cohort): 1 h | Tmax ([3]; 90 mg/m^2 cohort): 1 h | decrease of Vz for the dose increase from 60 to 90 mg/m^2 [3]: approximately 1.5 fold | increase of CL for the dose increase from 60 to 90 mg/m^2 [3]: approximately 1.5 fold

COc1cc(Nc2c(C#N)cnc3cc(OCCCN4CCN(C)CC4)c(OC)cc23)c(Cl)cc1Cl [bosutinib]
percentage of cells in sub-G1 phase (BV173 cells [1]; [4]): 34.3% | percentage of cells in sub-G1 phase (BV173 cells [1]; [5]): 66.1%
